Data on 18 molecules can be found in US20230026616A1, “PYRIMIDOIMIDAZOLE COMPOUNDS USED AS DNA-PK INHIBITORS” (MEDSHINE DISCOVERY INC., priority 2019, published 2023).

The target of one series is T1, Human DNA-PK (Homo sapiens, UniProt P78527).
T1 construct: purchased Eurofins (Eurofins Pharma Discovery Service)
Nature of the series: DNA-dependent protein kinase (DNA-PK) inhibitory activity screening (Eurofins, HTRF). In kind it is biochemical. The note with it: ATP: 10 μM; read-out: DNA-PK kinase inhibition IC50. As for the experimental part: Experimental Embodiment 1: DNA-Dependent Protein Kinase (DNA-PK) Inhibitory Activity Screening Experiment
This experiment was tested in the Eurofins
Human DNA-PK; Mg/ATP; GST-cMyc-p53; EDTA; Ser15 antibody; ATP: 10 μM.
Experimental Method (Eurofins Pharma Discovery Service):
DNA-PK (h) was incubated in assay buffer containing 50 nM GST-cMyc-p53 and Mg/ATP (according to the required concentration). The reaction was initiated by adding Mg/ATP mixture. After 30 minutes of incubation at room temperature, the reaction was stopped by adding a stop solution containing EDTA. Finally, detection buffer (containing labeled anti-GST monoclonal antibody and europium-labeled anti-Ser15 antibody against phosphorylated p53) was added. The plate was then read in time-resolved fluorescence mode, and the homogeneous time-resolved fluorescence (HTRF) signal was determined according to the formula HTRF=10000×(Em665 nm/Em620 nm).

A short description of series [1]: Pharmacokinetic evaluation (1): cassette PK in Balb/c male mice, plasma. The note with it: for AUC(0-t) / C0 / clearance / half-life / Vd / Cmax / Tmax / Tlast / AUC0-last / T1/2: mouse plasma; for Vd: read-out: Vdss; for F: mouse, PO 2 mg/kg vs IV 0.4 mg/kg. It counts as in vivo. The method, then: Test compounds were mixed with 10% dimethyl sulfoxide/50% polyethylene glycol 200/40% water (compounds 1, 4, 10, 17) or 20% N,N-dimethylacetamide/80% water (compound 5), vortexed and sonicated to prepare a nearly clear solution of 0.08 mg/mL (compounds 1, 4, 10, 17) or 0.50 mg/mL (compound 5), then filtered through a microporous membrane for next step. Balb/c male mice of 18 to 20 grams were selected and administered intravenously with the candidate compound solution at a dose of 0.4 (compounds 1, 4, 10, 17) or 1 mg/kg (compound 5). Test compounds were mixed with 10% dimethyl sulfoxide/50% polyethylene glycol 200/40% water (compounds 1, 4, 10, 17) or 20%-hydroxypropyl-β-cyclodextrin (compound 5), vortexed and sonicated to prepare a nearly clear solution of 0.2 mg/mL (compounds 1, 4, 10, 17) or 1 mg/mL (compound 5), then filtered through a microporous membrane for next step. Balb/c male mice of 18 to 20 grams were selected and orally administered with the candidate compound solution at a dose of 2 (compounds 1, 4, 10, 17) or 5 mg/kg (compound 5). Whole blood was collected for a certain period of time, and plasma was prepared, then drug concentration was detected by LC-MS/MS method, and pharmacokinetic parameters were calculated by Phoenix WinNonlin software (Pharsight, USA).
IV: intravenous injection; PO: oral; C0: instantaneous […] concentration after intravenous injection; Cmax: highest plasma concentration after administration; Tmax: time required to reach peak of drug concentration after administration; T1/2: time required for the plasma drug concentration to decrease by half, Vdss: apparent volume of distribution, refers to the proportional constant of the drug dose in vivo and the blood drug concentration when the drug reaches a dynamic equilibrium in vivo. Cl: clearance rate, refers to the […] cleared from the body per unit time; Tlast: time at the last detection point; AUC0-last: area under the drug-time curve, refers to the area covered by the plasma concentration curve and the time axis; F: a measure of the speed and degree of drug absorption into the blood circulation, which is an important indicator for evaluating the degree of drug absorption.

The mark [2] stands for this setting: male, Balb/c, PO 2 mg/kg, read-out: Tmax.

Like-named read-outs stand apart in the source and are kept apart here.

By IC50 is commonly meant the concentration needed to halve the response being measured. Consider `Cc1cc2nccn2cc1Nc1ncc2c(n1)n(N1CC3CCC(C1)O3)c(=O)n2C` [Compound 19], for which the IC50 on Human DNA-PK is 0.6 nM.
For `Cc1cc2ncnn2cc1Nc1ncc2c(n1)n(N1CCC3(CCO3)CC1)c(=O)n2C` [Compound 12], the IC50 at Human DNA-PK was determined as 4 nM.
Consider `Cc1nc2nccn2cc1Nc1ncc2c(n1)n(N1CC3CCC(C1)O3)c(=O)n2C` [Compound 23], for which, at Human DNA-PK, the IC50 worked out at 10 nM.
The same measure, in the same setting: with `Cc1nc2nccn2cc1Nc1ncc2c(n1)n(N1C3CCC1COC3)c(=O)n2C` [Compound 24] the figure was 68 nM.
What is called AUC(0-t) is exposure summed from dosing to a finite time, without extrapolation to infinity. By clearance is commonly meant the rate of elimination divided by the concentration. A low value points to inefficient removal. What is called half-life is the time needed for the level to fall by half in the phase considered. Usually Cmax stands for the highest concentration seen after dosing. In general, Tmax refers to the time from dosing to the highest level. Turning to `Cc1cc2ncnn2cc1Nc1ncc2c(n1)n(N1C3CCC1COC3)c(=O)n2C` [Compound 4], the IC50 on Human DNA-PK stood at 1 nM. Also, in series [1] (male, Balb/c, IV 0.4 mg/kg), the area under the curve AUC(0-t) stood at 0.286 µM·h, the C0 stood at 919 nM, the clearance came to 57 mL/min/kg and the half-life is 14.4 min. For the same molecule, in series [1] (male, Balb/c, IV 0.4 mg/kg), the Vd is 1.08 L/kg. In series [1] (male, Balb/c, PO 2 mg/kg), the AUC(0-t) worked out at 1.74 µM·h, the Cmax turned out to be 1600 nM and the half-life is 36.5 min. For the same molecule, the Tmax in series [1] (setting [2]) was determined as 15 min. In series [1] (IV 0.4 mg/kg), this molecule showed a Tlast of 2 h. The molecule also showed a Tlast in series [1] (PO 2 mg/kg) of 4 h. For the same molecule, the F in series [1] is on record as 123%.
As for `Cc1cc2ncnn2cc1Nc1ncc2c(n1)n(N1CCC(F)(F)CC1)c(=O)n2C` [Compound 7], the IC50 at Human DNA-PK was 2 nM.
The same measure, in the same setting: with `Cc1cn2ncnc2cc1Nc1ncc2c(n1)n(N1CC3CCC(C1)O3)c(=O)n2C` [Compound 21] the figure was 0.5 nM; with `Cc1cc2nncn2cc1Nc1ncc2c(n1)n(N1C3CCC1COC3)c(=O)n2C` [Compound 18], 0.9 nM; with `Cc1cc2nccn2cc1Nc1ncc2c(n1)n(N1C3CCC1COC3)c(=O)n2C` [Compound 20], 0.9 nM.
`Cc1cn2ncnc2cc1Nc1ncc2c(n1)n(N1C3CCC1COC3)c(=O)n2C` [Compound 22]: on Human DNA-PK, the IC50 was found to be 0.4 nM.
The same measure, in the same setting: with `Cc1cc2ncnn2cc1Nc1ncc2c(n1)n(N1CCOC3(CCC3)C1)c(=O)n2C` [Compound 13] the figure was 2 nM.
As to `Cc1cc2ncnn2cc1Nc1ncc2c(n1)n(N1CC3CC(C1)O3)c(=O)n2C` [Compound 6], at Human DNA-PK, the IC50 was determined as 1 nM.
Same read-out and setting: with `Cc1cc2ncnn2cc1Nc1ncc2c(n1)n(N1CCC(C#N)CC1)c(=O)n2C` [Compound 14] the figure was 5 nM.
For the molecule `Cc1cc2ncnn2cc1Nc1ncc2c(n1)n(N1CCOC3(CC3)C1)c(=O)n2C` [Compound 10], the concentration for half-maximal inhibition (IC50) on Human DNA-PK is 2.5 nM. Also, in series [1] (male, Balb/c, IV 0.4 mg/kg), the AUC(0-t) was determined as 0.64 µM·h, the C0 amounted to 1120 nM, the clearance was 25.4 mL/min/kg and the half-life was 35.5 min. Also, the Vd in series [1] (male, Balb/c, IV 0.4 mg/kg) amounted to 0.883 L/kg. In series [1] (male, Balb/c, PO 2 mg/kg), this molecule showed an AUC(0-t) of 3.83 µM·h, a Cmax of 2060 nM and a half-life of 73.2 min. Moreover, the Tmax in series [1] (setting [2]) worked out at 30 min. In series [1] (IV 0.4 mg/kg), the Tlast is recorded as 4 h. For the same molecule, the Tlast in series [1] (PO 2 mg/kg) stood at 8 h. In series [1], this molecule returned an F of 120%.
On to `Cc1cc2ncnn2cc1Nc1ncc2c(n1)n(N1CC3CC3C1)c(=O)n2C` (stereo not drawn) [Compound 16], for which the IC50 at Human DNA-PK is 0.5 nM.
As for `Cc1cc2ncnn2cc1Nc1ncc2c(n1)n(N1CCOCC1)c(=O)n2C` [Compound 1], at Human DNA-PK, the IC50 is 2 nM. In addition, in series [1] (male, Balb/c, IV 0.4 mg/kg), the C0 was 959 nM, the clearance worked out at 37.7 mL/min/kg and the Vd turned out to be 1.51 L/kg. In addition, in series [1] (IV 0.4 mg/kg), the AUC0-last is 0.426 µM·h, the T1/2 came to 35.9 min and the Tlast worked out at 4 h. In addition, in series [1] (PO 2 mg/kg), the AUC0-last is 2.497 µM·h, the Cmax stood at 1420 nM, the T1/2 was 50.5 min and the Tlast came out at 8 h. For the same molecule, the Tmax in series [1] (PO 2 mg/kg) stood at 30 min. The molecule also had a F in series [1] of 96.4%.
Consider `Cc1cc2ncnn2cc1Nc1ncc2c(n1)n(N1CCC3(CC1)COC3)c(=O)n2C` [Compound 11], for which the IC50 at Human DNA-PK was determined as 5 nM.
Same read-out and setting: with `Cc1cc2ncnn2cc1Nc1ncc2c(n1)n(N1CC3CCCC3C1)c(=O)n2C` (stereo not drawn) [Compound 15] the figure was 1 nM.
